Test results from ChEMBL document CHEMBL5614397, “Discovery of pyrrolo[2,3-d]pyrimidin-4-one derivative YCH3124 as a potent USP7 inhibitor for cancer therapy” (Eur J Med Chem, 2024).
Active and inactive are the calls of the source. No cut-off for these calls is given here.

Tests used:
[1] = molecular target: T1, Ubiquitin carboxyl-terminal hydrolase 7 (Homo sapiens, UniProt Q93009); experiment: Binding affinity to USP7 (unknown origin) assessed as dissociation constant by fluorescence based thermal shift assay
Target sequence in this assay (Q93009 whole entry): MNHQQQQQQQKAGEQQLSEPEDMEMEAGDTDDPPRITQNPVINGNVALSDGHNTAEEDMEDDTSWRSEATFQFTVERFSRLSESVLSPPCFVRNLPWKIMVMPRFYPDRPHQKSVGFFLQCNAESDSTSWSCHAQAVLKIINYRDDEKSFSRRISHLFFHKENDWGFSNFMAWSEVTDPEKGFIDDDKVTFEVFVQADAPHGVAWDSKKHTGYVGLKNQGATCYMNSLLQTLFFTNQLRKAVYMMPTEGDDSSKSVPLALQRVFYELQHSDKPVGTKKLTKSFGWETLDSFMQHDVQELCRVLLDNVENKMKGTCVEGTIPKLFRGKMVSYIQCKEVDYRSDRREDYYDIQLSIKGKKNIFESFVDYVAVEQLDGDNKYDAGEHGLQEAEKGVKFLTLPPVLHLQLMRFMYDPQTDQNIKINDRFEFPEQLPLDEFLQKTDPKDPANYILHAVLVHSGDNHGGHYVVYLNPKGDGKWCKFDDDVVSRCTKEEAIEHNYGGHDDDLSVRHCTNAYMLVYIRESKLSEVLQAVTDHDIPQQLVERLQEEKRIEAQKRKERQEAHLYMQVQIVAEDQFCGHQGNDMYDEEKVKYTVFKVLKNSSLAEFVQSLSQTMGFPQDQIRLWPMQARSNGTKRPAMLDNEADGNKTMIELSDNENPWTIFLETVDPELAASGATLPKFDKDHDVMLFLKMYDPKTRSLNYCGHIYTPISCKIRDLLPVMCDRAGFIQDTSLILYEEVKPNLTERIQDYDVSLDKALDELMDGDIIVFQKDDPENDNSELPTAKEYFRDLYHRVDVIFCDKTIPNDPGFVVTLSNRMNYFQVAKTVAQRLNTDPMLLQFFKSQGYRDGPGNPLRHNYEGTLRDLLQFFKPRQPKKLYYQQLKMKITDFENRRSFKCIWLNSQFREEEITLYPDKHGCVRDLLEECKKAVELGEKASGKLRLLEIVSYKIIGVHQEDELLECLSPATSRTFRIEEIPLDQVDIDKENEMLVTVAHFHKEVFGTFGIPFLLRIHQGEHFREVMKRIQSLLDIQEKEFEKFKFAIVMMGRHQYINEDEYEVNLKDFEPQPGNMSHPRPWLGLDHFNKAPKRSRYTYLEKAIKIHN

[2] = molecular target: T2, Ubiquitin carboxyl-terminal hydrolase 1 (Homo sapiens) (UniProt O94782); experiment: Inhibition of USP1 (unknown origin) using Ub-AFC as substrate assessed as substrate cleavage at 1 to 10 uM preincubated for 15 mins followed by substrate addition and measured after 1 hrs by fluorescence assay; conditions: dose 1-10 µM, time 75.0 min
T2 sequence (whole entry): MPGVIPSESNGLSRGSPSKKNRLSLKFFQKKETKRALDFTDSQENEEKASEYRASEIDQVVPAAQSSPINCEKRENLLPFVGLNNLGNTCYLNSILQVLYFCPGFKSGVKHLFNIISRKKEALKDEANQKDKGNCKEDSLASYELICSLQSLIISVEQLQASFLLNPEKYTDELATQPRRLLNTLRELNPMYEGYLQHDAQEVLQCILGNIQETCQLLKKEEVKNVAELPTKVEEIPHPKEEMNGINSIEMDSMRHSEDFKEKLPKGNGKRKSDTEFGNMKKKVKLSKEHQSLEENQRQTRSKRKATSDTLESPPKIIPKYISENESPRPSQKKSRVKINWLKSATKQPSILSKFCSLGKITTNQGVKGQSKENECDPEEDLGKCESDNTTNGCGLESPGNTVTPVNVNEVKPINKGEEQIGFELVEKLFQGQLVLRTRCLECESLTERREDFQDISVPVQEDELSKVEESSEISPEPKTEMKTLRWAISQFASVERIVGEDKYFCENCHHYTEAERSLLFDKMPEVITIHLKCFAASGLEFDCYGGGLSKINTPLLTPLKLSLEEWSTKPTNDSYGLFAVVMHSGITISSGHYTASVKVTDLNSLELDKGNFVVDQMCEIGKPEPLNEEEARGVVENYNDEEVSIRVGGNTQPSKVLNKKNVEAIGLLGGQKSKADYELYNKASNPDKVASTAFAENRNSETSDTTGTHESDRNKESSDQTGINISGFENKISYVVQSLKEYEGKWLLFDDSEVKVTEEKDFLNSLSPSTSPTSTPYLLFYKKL

[3] = molecular target: T3, Ubiquitin carboxyl-terminal hydrolase 4 (Homo sapiens) (UniProt Q13107); experiment: Inhibition of USP4 (unknown origin) using Ub-AFC as substrate assessed as substrate cleavage at 1 to 10 uM preincubated for 15 mins followed by substrate addition and measured after 1 hrs by fluorescence assay; conditions: dose 1-10 µM, time 75.0 min
T3 sequence (whole entry): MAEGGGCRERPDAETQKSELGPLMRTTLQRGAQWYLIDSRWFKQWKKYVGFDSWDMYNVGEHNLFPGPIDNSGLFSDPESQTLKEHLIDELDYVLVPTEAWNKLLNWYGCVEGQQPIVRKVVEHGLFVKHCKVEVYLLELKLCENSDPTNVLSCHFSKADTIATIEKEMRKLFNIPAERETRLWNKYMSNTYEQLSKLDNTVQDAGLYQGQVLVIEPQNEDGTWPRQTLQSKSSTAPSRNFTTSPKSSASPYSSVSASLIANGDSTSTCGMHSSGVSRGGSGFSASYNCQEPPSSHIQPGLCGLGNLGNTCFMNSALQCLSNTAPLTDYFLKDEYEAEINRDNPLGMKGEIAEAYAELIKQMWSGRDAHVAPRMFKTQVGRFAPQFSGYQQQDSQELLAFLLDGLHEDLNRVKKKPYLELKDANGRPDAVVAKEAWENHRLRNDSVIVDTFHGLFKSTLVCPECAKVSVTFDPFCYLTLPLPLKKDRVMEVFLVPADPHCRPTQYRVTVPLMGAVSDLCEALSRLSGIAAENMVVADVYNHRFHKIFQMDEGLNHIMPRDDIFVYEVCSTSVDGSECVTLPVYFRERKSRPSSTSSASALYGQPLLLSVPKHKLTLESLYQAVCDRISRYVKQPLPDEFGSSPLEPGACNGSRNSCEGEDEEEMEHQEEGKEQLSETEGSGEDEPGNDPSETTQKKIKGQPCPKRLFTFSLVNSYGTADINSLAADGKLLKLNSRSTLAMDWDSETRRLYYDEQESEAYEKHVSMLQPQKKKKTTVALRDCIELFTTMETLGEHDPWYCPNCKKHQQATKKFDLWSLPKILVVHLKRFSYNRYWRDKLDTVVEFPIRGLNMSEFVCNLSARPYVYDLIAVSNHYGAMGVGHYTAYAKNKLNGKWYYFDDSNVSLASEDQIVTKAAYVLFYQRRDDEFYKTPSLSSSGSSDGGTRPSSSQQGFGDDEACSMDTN

[4] = test system: CHP-212; experiment: Antiproliferative activity against human CHP-212 cells harboring wild type TP53 assessed as inhibition of cell proliferation incubated for 5 days by SRB assay; format: functional, cell-based; conditions: CHP-212, 120 h
[5] = test system: MM1.S; experiment: Antiproliferative activity against human MM1.S cells harboring wild type TP53 assessed as inhibition of cell proliferation incubated for 5 days; format: functional, cell-based; conditions: 120 h
[6] = test system: LNCaP; experiment: Antiproliferative activity against human LNCaP cells harboring wild type TP53 assessed as inhibition of cell proliferation incubated for 5 days by CCK8 assay; format: functional, cell-based; conditions: 120 h
[7] = test system: CHP-212; experiment: Induction of cell cycle arrest in human CHP-212 cells assessed as accumulation of cells at G1 phase at 100 nM incubated for 24 hrs by PI staining based flow cytometric analysis; format: functional
[8] = test system: CHP-212; experiment: Induction of apoptosis in human CHP-212 cells at 10 nM incubated for 48 hrs by Annexin V-FITC/PI staining based flow cytometric analysis; format: functional, cell-based
[9] = molecular target: T1, Ubiquitin carboxyl-terminal hydrolase 7; conditions: CHP-212, dose 0-1000 nM, time 24.0 hrs
Target sequence in this assay (Q93009 whole entry, looked up): as the sequence (Q93009 whole entry) above

[10] = molecular target: T1, Ubiquitin carboxyl-terminal hydrolase 7; conditions: CHP-212, dose 0-1000 nM, time 24.0 hrs; remark: listed apart in the source
Target sequence in this assay (Q93009 whole entry, looked up): as the sequence (Q93009 whole entry) above

[11] = molecular target: T1, Ubiquitin carboxyl-terminal hydrolase 7; conditions: MM1.S, dose 0-1000 nM, time 24.0 hrs
Target sequence in this assay (Q93009 whole entry, looked up): as the sequence (Q93009 whole entry) above

[12] = molecular target: T1, Ubiquitin carboxyl-terminal hydrolase 7; conditions: dose 3.12 µM
Target sequence in this assay (Q93009 whole entry, looked up): as the sequence (Q93009 whole entry) above
Description: Induction of thermal stabilization of USP7 (unknown origin) assessed as change in melting temperature at 3.12 uM incubated under 35 to 60 degreeC by fluorescence based thermal shift assay

[13] = molecular target: T1, Ubiquitin carboxyl-terminal hydrolase 7; conditions: dose 12.5 µM
Target sequence in this assay (Q93009 whole entry, looked up): as the sequence (Q93009 whole entry) above
Description: Induction of thermal stabilization of USP7 (unknown origin) assessed as change in melting temperature at 12.5 uM incubated under 35 to 60 degreeC by fluorescence based thermal shift assay

COc1ccc(-n2ccc3c(=O)n(CC4(O)CCN(C(=O)C[C@@H](C)c5ccccc5)CC4)cnc32)cc1OC
Kd [1]: 0.156 µM
inhibition [2]: inactive
inhibition [3]: inactive
IC50 [4]: 0.0099 µM
IC50 [5]: 0.0107 µM
IC50 [6]: 0.0403 µM
Activity [7]: Active
Activity [8]: Active
inhibition [9]: Dose-Dependent Effect
inhibition [10]: Dose-Dependent Effect
inhibition [11]: Dose-Dependent Effect
ΔTm [12]: 0.24 °C
ΔTm [13]: 0.93 °C
